Patent US7045305B1, “Methods and reagents for targeting organic compounds to selected cellular locations” (The Regents of the University of California, priority 1998, dated 2006)

Legend:
[1] = system: vacuolar H+ pump; assay: Golgi lumenal pH time course with Golgi-targeted phOx-fluorescein; type: cell-based; conditions: 100 nM, Golgi pH initially ~6.3, individual cells
Procedure: Cells were labeled at two days after transfection, with phOx-fluorophore conjugates by incubation with low concentrations (<100 nM) of the conjugates. […] Images were recorded at room temperature on a K2 BIO microscope (Technical Instruments) equipped with a 60× PlanApo objective (Nikon, N. A. 1.4), coaxial-confocal attachment, and cooled CCD camera (Photometrics). Dual-excitation ratio images of fluorescein were acquired using 440 and 490 nm excitation filters and a 520 nm long pass emission filter (Chroma). Continuous recordings of the fluorescence time course were obtained on a Nikon Diaphot epifluorescence microscope equipped with a 100× PlanApo objective (Nikon, N. A. 1.4), a photomultiplier using a 530 nm bandpass emission filter and an optical filter changer (Model 10-C, Sutter Instrument Co.) containing 440 and 490 nm excitation filters. Cuvette fluorescence measurements were conducted on an SLM 8000c fluorometer (SLM Aminco). Spectra were recorded with 4 nm slit widths; time courses were acquired with 495 nm excitation and a […] longpass emission filter.
Organelle-specific sFv targeting was applied to measure Golgi pH using phOx-fluorescein as the probe. […] The dependence of the fluorescence ratio on pH was measured for Golgi and plasma membrane-expressed sFv (FIG. 4A). […]

[2] = system: CHO cells expressing targeted sFv; assay: Site-specific fluorescent labeling of living CHO cells expressing targeted sFv; type: cell-based; conditions: addition of 1 μM
Procedure: CHO cells (ATCC CRL 9618) were transfected with plasmids encoding targeted sFv using lipofectamine (Gibco) as is known in the art.
Cells were labeled at two days after transfection, with phOx-fluorophore conjugates by incubation with low concentrations (<100 nM) of the conjugates. […] Images were recorded at room temperature on a K2 BIO microscope (Technical Instruments) equipped with a 60× PlanApo objective (Nikon, N. A. 1.4), coaxial-confocal attachment, and cooled CCD camera (Photometrics). Dual-excitation ratio images of fluorescein were acquired using 440 and 490 nm excitation filters and a 520 nm long pass emission filter (Chroma). Continuous recordings of the fluorescence time course were obtained on a Nikon Diaphot epifluorescence microscope equipped with a 100× PlanApo objective (Nikon, N. A. 1.4), a photomultiplier using a 530 nm bandpass emission filter and an optical filter changer (Model 10-C, Sutter Instrument Co.) containing 440 and 490 nm excitation filters. Cuvette fluorescence measurements were conducted on an SLM 8000c fluorometer (SLM Aminco). Spectra were recorded with 4 nm slit widths; time courses were acquired with 495 nm excitation and a 510 mm longpass emission filter.
The various sFv targeting constructs and phOx conjugates were studied in CHO cells. […] For quantitative measurement of organelle pH, the free dye was washed out of the bathing solutions.

With `CO/C1=C\C(C)=C\[C@@H](C)[C@@H](O)[C@@H](C)C/C(C)=C/C=C/[C@H](OC)[C@@H]([C@@H](C)[C@@H](O)[C@H](C)[C@@]2(O)C[C@@H](O)[C@H](C)[C@@H](C(C)C)O2)OC1=O` [bafilomycin A1] the “change of Golgi pH after addition” value [1] was “promptly alkalinized”.

`O=C1OC(c2ccccc2)=NC1=CNCCO` [phOx-ethanolamine] was tested, and the “effect on phOx-Bodipy staining of Golgi (competition)” value [2] was “reversed”.
